Source: the NIST ThermoML archive (doi:10.1021/je020125e)
Values joined by “and” are separate entries in the source; they are usually repeats but may differ in a detail not shown here. Identical values can stand only once. Numbers after ± are expanded uncertainties.

Conditions: 101.33 kPa, Liquid, Hot wire method

Question: For `CC(C)C(C)C(C)C` [2,3,4-trimethylpentane], which thermal conductivity (259.06 K) is on record?
Answer: 0.1127 ± 0.00078 W/m/K

Question: What about the thermal conductivity (259.29 K) of the same molecule?
Answer: 0.1126 ± 0.00078 W/m/K

Question: And the thermal conductivity (259.54 K)?
Answer: 0.1125 ± 0.00078 W/m/K

Question: What about the thermal diffusivity (259.87 K) of the same molecule?
Answer: 7.32e-08 ± 1.4e-09 m2/s

Question: And the thermal diffusivity (260.45 K)?
Answer: 7.32e-08 ± 1.4e-09 m2/s

Question: And the thermal diffusivity (261.06 K)?
Answer: 7.31e-08 ± 1.4e-09 m2/s

Question: What about the thermal conductivity (277.95 K) of the same molecule?
Answer: 0.1083 ± 0.00076 W/m/K

Question: What about the thermal conductivity (278.19 K) of the same molecule?
Answer: 0.1082 ± 0.00075 W/m/K

Question: And the thermal conductivity (278.44 K)?
Answer: 0.108 ± 0.00075 W/m/K

Question: And the thermal diffusivity (278.74 K)?
Answer: 6.91e-08 ± 1.3e-09 m2/s

Question: And the thermal diffusivity (279.35 K)?
Answer: 6.9e-08 ± 1.3e-09 m2/s

Question: And the thermal diffusivity (279.93 K)?
Answer: 6.87e-08 ± 1.3e-09 m2/s

Question: And the thermal conductivity (297.33 K)?
Answer: 0.1036 ± 0.00073 W/m/K

Question: What about the thermal conductivity (297.58 K) of the same molecule?
Answer: 0.1035 ± 0.00072 W/m/K

Question: And the thermal conductivity (297.84 K)?
Answer: 0.1033 ± 0.00072 W/m/K

Question: What about the thermal diffusivity (298.16 K) of the same molecule?
Answer: 6.57e-08 ± 1.2e-09 m2/s

Question: And the thermal diffusivity (298.78 K)?
Answer: 6.56e-08 ± 1.2e-09 m2/s

Question: What about the thermal diffusivity (299.4 K) of the same molecule?
Answer: 6.54e-08 ± 1.2e-09 m2/s

Question: And the thermal conductivity (315.53 K)?
Answer: 0.09948 ± 0.0007 W/m/K

Question: What about the thermal conductivity (315.77 K) of the same molecule?
Answer: 0.09926 ± 0.0007 W/m/K

Question: And the thermal conductivity (316.03 K)?
Answer: 0.09916 ± 0.0007 W/m/K

Question: What about the thermal diffusivity (316.35 K) of the same molecule?
Answer: 6.19e-08 ± 1.2e-09 m2/s

Question: And the thermal diffusivity (316.91 K)?
Answer: 6.12e-08 ± 1.2e-09 m2/s

Question: What about the thermal diffusivity (317.54 K) of the same molecule?
Answer: 6.12e-08 ± 1.2e-09 m2/s

Question: And the thermal conductivity (331.87 K)?
Answer: 0.0958 ± 0.00068 W/m/K

Question: What about the thermal conductivity (332.13 K) of the same molecule?
Answer: 0.09569 ± 0.00068 W/m/K

Question: And the thermal conductivity (332.39 K)?
Answer: 0.09551 ± 0.00068 W/m/K

Question: What about the thermal diffusivity (332.69 K) of the same molecule?
Answer: 5.9e-08 ± 1.1e-09 m2/s

Question: What about the thermal diffusivity (333.32 K) of the same molecule?
Answer: 5.89e-08 ± 1.1e-09 m2/s

Question: What about the thermal diffusivity (333.91 K) of the same molecule?
Answer: 5.84e-08 ± 1.1e-09 m2/s

Question: With `CC(C)C(C)C` [2,3-dimethylbutane] as the molecule, how does the thermal conductivity (256.81 K) read?
Answer: 0.1128 ± 0.00092 W/m/K

Question: What about the thermal conductivity (257.19 K) of the same molecule?
Answer: 0.1127 ± 0.00092 W/m/K

Question: What about the thermal conductivity (257.69 K) of the same molecule?
Answer: 0.1125 ± 0.00092 W/m/K

Question: What about the thermal diffusivity (258.09 K) of the same molecule?
Answer: 7.87e-08 ± 1.5e-09 m2/s

Question: And the thermal diffusivity (258.98 K)?
Answer: 7.85e-08 ± 1.5e-09 m2/s

Question: And the thermal diffusivity (260.13 K)?
Answer: 7.79e-08 ± 1.5e-09 m2/s

Question: And the thermal conductivity (277.98 K)?
Answer: 0.1061 ± 0.00087 W/m/K

Question: And the thermal conductivity (278.38 K)?
Answer: 0.1059 ± 0.00087 W/m/K

Question: What about the thermal conductivity (278.91 K) of the same molecule?
Answer: 0.1057 ± 0.00087 W/m/K

Question: What about the thermal diffusivity (279.29 K) of the same molecule?
Answer: 7.3e-08 ± 1.4e-09 m2/s

Question: What about the thermal diffusivity (280.19 K) of the same molecule?
Answer: 7.27e-08 ± 1.4e-09 m2/s

Question: What about the thermal diffusivity (281.39 K) of the same molecule?
Answer: 7.23e-08 ± 1.4e-09 m2/s

Question: What about the thermal conductivity (297.63 K) of the same molecule?
Answer: 0.1 ± 0.00083 W/m/K

Question: And the thermal conductivity (298.06 K)?
Answer: 0.0999 ± 0.00082 W/m/K

Question: And the thermal conductivity (298.6 K)?
Answer: 0.09972 ± 0.00082 W/m/K

Question: And the thermal diffusivity (298.95 K)?
Answer: 6.8e-08 ± 1.3e-09 m2/s

Question: What about the thermal diffusivity (299.9 K) of the same molecule?
Answer: 6.77e-08 ± 1.3e-09 m2/s

Question: And the thermal diffusivity (301.09 K)?
Answer: 6.74e-08 ± 1.3e-09 m2/s

Question: What about the thermal conductivity (318.11 K) of the same molecule?
Answer: 0.09429 ± 0.00078 W/m/K

Question: And the thermal conductivity (318.45 K)?
Answer: 0.09416 ± 0.00078 W/m/K

Question: And the thermal conductivity (319.06 K)?
Answer: 0.09398 ± 0.00078 W/m/K

Question: What about the thermal diffusivity (319.63 K) of the same molecule?
Answer: 6.39e-08 ± 1.2e-09 m2/s

Question: What about the thermal diffusivity (320.36 K) of the same molecule?
Answer: 6.35e-08 ± 1.2e-09 m2/s

Question: What about the thermal diffusivity (321.67 K) of the same molecule?
Answer: 6.31e-08 ± 1.2e-09 m2/s

Question: What about the thermal conductivity (336.29 K) of the same molecule?
Answer: 0.08957 ± 0.00075 W/m/K

Question: What about the thermal conductivity (336.65 K) of the same molecule?
Answer: 0.08944 ± 0.00075 W/m/K

Question: And the thermal conductivity (337.3 K)?
Answer: 0.08925 ± 0.00074 W/m/K

Question: And the thermal diffusivity (337.85 K)?
Answer: 6.04e-08 ± 1.2e-09 m2/s

Question: What about the thermal diffusivity (338.62 K) of the same molecule?
Answer: 6.01e-08 ± 1.2e-09 m2/s

Question: What about the thermal diffusivity (339.96 K) of the same molecule?
Answer: 5.97e-08 ± 1.2e-09 m2/s

Question: For `CCC(C)C(C)C` (stereo unspecified) [2,3-dimethylpentane], which thermal conductivity (256.3 K) is on record?
Answer: 0.1178 ± 0.00096 W/m/K

Question: And the thermal conductivity (256.7 K)?
Answer: 0.1175 ± 0.00096 W/m/K

Question: And the thermal diffusivity (256.93 K)?
Answer: 8.19e-08 ± 1.6e-09 m2/s

Question: And the thermal conductivity (256.95 K)?
Answer: 0.1173 ± 0.00096 W/m/K

Question: And the thermal diffusivity (257.7 K)?
Answer: 8.09e-08 ± 1.6e-09 m2/s

Question: And the thermal diffusivity (258.3 K)?
Answer: 8.05e-08 ± 1.6e-09 m2/s

Question: And the thermal conductivity (269.57 K)?
Answer: 0.114 ± 0.00094 W/m/K

Question: And the thermal conductivity (269.87 K)?
Answer: 0.1137 ± 0.00093 W/m/K

Question: And the thermal conductivity (270.12 K)?
Answer: 0.1135 ± 0.00093 W/m/K

Question: What about the thermal diffusivity (270.24 K) of the same molecule?
Answer: 7.8e-08 ± 1.5e-09 m2/s

Question: What about the thermal diffusivity (270.9 K) of the same molecule?
Answer: 7.79e-08 ± 1.5e-09 m2/s

Question: What about the thermal diffusivity (271.49 K) of the same molecule?
Answer: 7.72e-08 ± 1.5e-09 m2/s

Question: What about the thermal conductivity (284.74 K) of the same molecule?
Answer: 0.1097 ± 0.00091 W/m/K

Question: What about the thermal conductivity (285.02 K) of the same molecule?
Answer: 0.1093 ± 0.0009 W/m/K

Question: And the thermal conductivity (285.27 K)?
Answer: 0.1092 ± 0.0009 W/m/K

Question: And the thermal diffusivity (285.38 K)?
Answer: 7.51e-08 ± 1.5e-09 m2/s

Question: What about the thermal diffusivity (286.04 K) of the same molecule?
Answer: 7.37e-08 ± 1.4e-09 m2/s

Question: What about the thermal diffusivity (286.63 K) of the same molecule?
Answer: 7.35e-08 ± 1.4e-09 m2/s

Question: And the thermal conductivity (296.31 K)?
Answer: 0.1057 ± 0.00087 W/m/K

Question: What about the thermal conductivity (296.36 K) of the same molecule?
Answer: 0.1063 ± 0.00088 W/m/K

Question: And the thermal conductivity (296.65 K)?
Answer: 0.106 ± 0.00088 W/m/K

Question: And the thermal diffusivity (297 K)?
Answer: 7.16e-08 ± 1.4e-09 m2/s

Question: And the thermal diffusivity (297.68 K)?
Answer: 7.1e-08 ± 1.4e-09 m2/s

Question: And the thermal diffusivity (298.28 K)?
Answer: 7.02e-08 ± 1.4e-09 m2/s

Question: And the thermal conductivity (311.34 K)?
Answer: 0.1022 ± 0.00084 W/m/K

Question: What about the thermal conductivity (311.66 K) of the same molecule?
Answer: 0.102 ± 0.00084 W/m/K

Question: What about the thermal conductivity (311.93 K) of the same molecule?
Answer: 0.1018 ± 0.00084 W/m/K

Question: What about the thermal diffusivity (311.97 K) of the same molecule?
Answer: 6.79e-08 ± 1.3e-09 m2/s

Question: And the thermal diffusivity (312.7 K)?
Answer: 6.77e-08 ± 1.3e-09 m2/s

Question: And the thermal diffusivity (313.33 K)?
Answer: 6.76e-08 ± 1.3e-09 m2/s

Question: And the thermal conductivity (321.3 K)?
Answer: 0.09959 ± 0.00082 W/m/K

Question: And the thermal conductivity (321.59 K)?
Answer: 0.09937 ± 0.00082 W/m/K

Question: And the thermal conductivity (321.85 K)?
Answer: 0.09916 ± 0.00082 W/m/K

Question: What about the thermal diffusivity (321.91 K) of the same molecule?
Answer: 6.53e-08 ± 1.3e-09 m2/s

Question: What about the thermal diffusivity (322.58 K) of the same molecule?
Answer: 6.46e-08 ± 1.3e-09 m2/s

Question: And the thermal diffusivity (323.18 K)?
Answer: 6.43e-08 ± 1.2e-09 m2/s

Question: And the thermal conductivity (331.96 K)?
Answer: 0.097 ± 0.00082 W/m/K

Question: What about the thermal conductivity (332.21 K) of the same molecule?
Answer: 0.09651 ± 0.00082 W/m/K and 0.09662 ± 0.00081 W/m/K

Question: And the thermal diffusivity (332.5 K)?
Answer: 6.07e-08 ± 1.2e-09 m2/s

Question: And the thermal diffusivity (333.06 K)?
Answer: 5.99e-08 m2/s and 6e-08 m2/s

Question: And the thermal conductivity (343.12 K)?
Answer: 0.09411 ± 0.0008 W/m/K

Question: What about the thermal conductivity (343.36 K) of the same molecule?
Answer: 0.09373 ± 0.00079 W/m/K

Question: And the thermal conductivity (343.59 K)?
Answer: 0.09353 ± 0.00078 W/m/K

Question: And the thermal diffusivity (343.64 K)?
Answer: 5.78e-08 ± 1.1e-09 m2/s

Question: What about the thermal diffusivity (344.2 K) of the same molecule?
Answer: 5.72e-08 ± 1.1e-09 m2/s

Question: What about the thermal diffusivity (344.73 K) of the same molecule?
Answer: 5.72e-08 ± 1.1e-09 m2/s
